Source: patent US20070191324A1, “Methods for treatment or prophylaxis of aldosterone-mediated pathogenic effects in a subject using an epoxy-steroidal aldosterone antagonist” (priority 1999, published 2007)

Tests used:
human subject = assay: Blood pressure, plasma renin activity and serum aldosterone as a function of eplerenone dose (FIG. 10-12); type: in vivo; conditions: increasing doses
Source text: For example, appropriate dosing can be determined by monitoring systolic blood pressure. […] Accordingly, subjects can be treated with doses of one or more epoxy-steroidal compounds according to the present invention by increasing doses of such compounds in a step-wise manner until a minimal levels of systolic blood pressure decrease are achieved while, at the same time, also maintaining serum levels of potassium within the normal range. Similarly, appropriate dosing can also be determined by monitoring diastolic blood pressure. […] Accordingly, subjects can be treated with doses of one or more epoxy-steroidal compounds according to the present invention by increasing doses of such compounds in a step-wise manner until a minimal level of diastolic blood pressure change are achieved while, at the same time, also maintaining serum levels of potassium within the normal range. Appropriate dosing can also be determined by monitoring plasma renin activity. […] Accordingly, subjects can be treated with doses of one or more epoxy-steroidal compounds according to the present invention by increasing doses of such compounds in a step-wise manner until the desired level of plasma renin activity is achieved while, at the same time, maintaining serum levels of potassium within the normal range. Appropriate dosing can also be determined by monitoring serum aldosterone levels. […] Accordingly, subjects can be treated with doses of one or more epoxy-steroidal compounds according to the present invention by increasing doses of such compounds in a step-wise manner until the desired level of serum aldosterone is achieved while, at the same time, also maintaining serum levels of potassium within the normal range.

[1] = test system: patients with hypertension and left ventricular hypertrophy; assay: Eplerenone, enalapril and combination in left ventricular hypertrophy, 9 months (Examples A-15, D-4); type: in vivo, human
Source text: Table […] illustrates forth the above-described dosing scheme. […] Additional laboratory assessments of blood for clinical safety will be done monthly. Routine urinalysis will be done every three months. […] A blood sample for genotyping will be collected at Week 0. At screening and at Month 9, a 12-lead ECG and physical examination will be done. […] In case of early termination, an MRI and blood sample for TSH will be done for those patients who have received double-blind treatment for at least three months. At Weeks 0, 12 and Months 6 and 9, pharmacoeconomic data will be collected on all patients. The primary measure of efficacy is the change from baseline in LVM, as assessed by MRI, in the eplerenone group versus the enalapril group. […] Secondary measures of efficacy will be the following: […] (3) aortic compliance and ventricular filling parameters; and (4) special studies (PIIINP, microalbuminuria, PAI, and tPA). Additionally, the long-term safety and tolerability of the three treatment groups will be compared. […] The study design is illustrated in FIG. D-10. […] Left ventricular mass (LVM) (assayed by MRI), BP, collagen turnover, and tolerability were assessed at the 9-month endpoint.

[2] = test system: saline-loaded adrenalectomized rats treated with aldosterone; assay: Subcutaneous vs. oral eplerenone in saline-loaded adrenalectomized rats treated with aldosterone (Example A-3); type: in vivo
Method: Urinary sodium, potassium and water excretion were measured. The results are expressed as the ratio of excreted urinary sodium to potassium (Na/K)±SEM.

[3] = Pharmacokinetics in moderate hepatic impairment vs matched normal subjects (Example A-13); conditions: for AUC / Cmax / AUC(0-inf) / half-life / Tmax: human, plasma, 400 mg; for AUC(0-inf): Single Dose AUC(0-∞), linear kinetics assessment; for half-life: T1/2, Mean;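 on all read-outs here: impaired subjects were Child-Pugh Class B with ascites, compared against healthy volunteers matched for sex, age, weight and smoking, blood sampled before and after dosing on Days 1 and 7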
[4] = test system: aldosterone/salt uninephrectomized rats; assay: Myocardial injury in aldosterone/salt uninephrectomized rats (Example A-6); type: in vivo, Sprague Dawley rats; conditions: eplerenone in chow 100 mg/k/d; aldosterone 0.75 ug/hr, 1% NaCl
Method: The rats were then implanted with Alzet mini pump that subcutaneously delivered either aldosterone (0.75 ug/hr) or vehicle. […] Blood pressure was measured by radio telemetry units implanted in abdominal aorta. Rats were sacrificed for examination of the hearts.

[5] = 9-month endpoint, forced titration
[6] = 9-month endpoint, EPL 200 mg, ENAL 40 mg, EPL 200 mg/ENAL 10 mg
[7] = Mean, Multiple Dose 400 mg QD, Normal
[8] = Mean, Single Dose 400 mg, Normal
[9] = Mean, Multiple Dose 400 mg QD, Moderate
[10] = Mean, Single Dose 400 mg, Moderate
[11] = least squares mean, Multiple Dose 400 mg QD, Moderate Impairment
[12] = least squares mean, Single Dose 400 mg, Moderate Impairment

COC(=O)[C@@H]1CC2=CC(=O)CC[C@]2(C)[C@@]23O[C@@H]2C[C@@]2(C)[C@@H](CC[C@@]24CCC(=O)O4)[C@H]13 [Eplerenone, Pregn-4-ene-7,21-dicarboxylic acid, 9,11-epoxy-17-hydroxy-3-oxo-, γ-lactone, methyl ester, (7α, 11α, 17β)-]
systolic blood pressure as a function of dose (human subject; FIG. 10): decreased systolic blood pressure | diastolic blood pressure as a function of dose (human subject; FIG. 11): decreased diastolic blood pressure | plasma renin activity as a function of dose (human subject; FIG. 12): increased levels of plasma renin activity | serum aldosterone as a function of dose (human subject; FIG. 12): increased levels of serum aldosterone | DBP Adjusted mean change [1, 5]: −10.8 mmHg | SBP Adjusted mean change [1, 5]: −21.0 mmHg | decrease from baseline in UACR [1, 6]: −28.7% | decrease from baseline in collagen turnover [1, 6]: −7.3% | patients experiencing coughing ([1]; 9-month study): 3.1% | LVM Adjusted mean change [g (SE)] ([1]; left ventricular mass by MRI, 9-month endpoint, forced titration (EPL 50-200 mg, ENAL 10-40 mg)): −14.5 (3.36) g | regressing LVH and reducing collagen turnover ([1]; monotherapy): as effective as enalapril monotherapy | Mean Na/K ([2]; Table A-3A, aldosterone + antagonist 10 mg/100 g rat): 2.17 | Mean Na/K ([2]; Table A-3A, aldosterone + antagonist 30 mg/100 g rat): 2.98 | Mean Na/K ([2]; Table A-3A, aldosterone + antagonist 100 mg/100 g rat): 3.44 | Mean Na/K ([2]; Table A-3B, aldosterone + antagonist 3 mg/100 g rat): 0.90 | Mean Na/K ([2]; Table A-3B, aldosterone + antagonist 10 mg/100 g rat): 1.34 | Mean Na/K ([2]; Table A-3B, aldosterone + antagonist 30 mg/100 g rat): 1.18 | Mean Na/K ([2]; Table A-3B, aldosterone + antagonist 100 mg/100 g rat): 2.10 | Mean Na/K ([2]; Table A-3B, aldosterone + antagonist 300 mg/100 g rat): 4.79 | Mean Na/K ([2]; Table A-3B, aldosterone + antagonist 1000 mg/100 g rat): 5.70 | efficacy of subcutaneous injection versus oral administration ([2]; antagonism of aldosterone-mediated renal effects): Subcutaneous injection provided better efficacy than oral administration | time to steady-state concentrations ([3]; 400 mg QD dosing, both subject groups): by the fourth day | mean AUC higher in moderate impairment than matched normal subjects ([3]; following single dosing): 41-50% | AUC ([3]; Mean, Multiple Dose 400 mg QD, Moderate hepatic impairment): 48800 ng·h/mL | AUC [3, 7]: 33800 ng·h/mL | AUC ([3]; Mean, Single Dose 400 mg, Moderate hepatic impairment): 51400 ng·h/mL | AUC [3, 8]: 31000 ng·h/mL | Cmax [3, 9]: 4170 ng/mL | Cmax [3, 7]: 3880 ng/mL | Cmax [3, 10]: 3790 ng/mL | Cmax [3, 8]: 3840 ng/mL | Cmax [3, 11]: 3810 ng/mL | Cmax ([3]; least squares mean, Multiple Dose 400 mg QD, Normal): 3670 ng/mL | Cmax [3, 12]: 3410 ng/mL | Cmax ([3]; least squares mean, Single Dose 400 mg, Normal): 3810 ng/mL | AUC(0-inf) ([3]; Moderate Hepatic Impairment): 49800 ng·h/mL | AUC(0-inf) ([3]; Normal): 28700 ng·h/mL | half-life ([3]; Multiple Dose 400 mg QD, Moderate): 8.07 h | half-life ([3]; Multiple Dose 400 mg QD, Normal): 7.61 h | half-life ([3]; Single Dose 400 mg, Moderate): 6.78 h | half-life ([3]; Single Dose 400 mg, Normal): 6.31 h | Tmax [3, 9]: 2.81 h | Tmax [3, 10]: 2.56 h | Tmax [3, 8]: 2.03 h | Tmax [3, 11]: 2.9 h | Tmax [3, 12]: 2.7 h | cardiac histopathologic damage [4]: prevents the histopathologic damage
